# Laboratory results taken from paper PMC11711195, “The non-nutritive sweetener rebaudioside a enhances phage infectivity” (Scientific Reports, 2025).
# Molecular target: T1, gp31 (Klebsiella phage KP32, UniProt D1L2W4)
# T1 construct: gene 31; recombinant from bacterial expression, His-tag (and MBP) removed by TEV protease
# T1 sequence (D1L2W4 1-192): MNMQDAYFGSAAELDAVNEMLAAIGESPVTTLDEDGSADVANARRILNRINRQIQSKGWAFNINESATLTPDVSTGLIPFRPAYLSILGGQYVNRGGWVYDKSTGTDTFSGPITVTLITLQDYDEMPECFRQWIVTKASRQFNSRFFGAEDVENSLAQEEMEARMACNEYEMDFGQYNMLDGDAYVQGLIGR
# Assay: RedStarch hydrolysis, absorbance […] nm
# Assay type: biochemical
# Settings: activator; RedStarch 2% w/v stock; 50 µL gp31 4.673 µM plus 50 µL rebA 14.019 µM; 20 °C, 72 h
compound,measurement,value
C=C1C[C@@]23CC[C@H]4[C@@](C)(CCC[C@@]4(C)C(=O)O[C@@H]4O[C@H](CO)[C@@H](O)[C@H](O)[C@H]4O)[C@@H]2CC[C@]1(O[C@@H]1O[C@H](CO)[C@@H](O)[C@H](O[C@@H]2O[C@H](CO)[C@@H](O)[C@H](O)[C@H]2O)[C@H]1O[C@@H]1O[C@H](CO)[C@@H](O)[C@H](O)[C@H]1O)C3 [rebA],increment of activity,51.14%
